Source: patent publication US20230263774A1, “OPTIMIZED SURGERY PROTOCOL AND KITS” (Steadman Philippon Research Institute, priority 2020, published 2023)
“Also recorded” adds a separate entry of the source.

How the values were obtained:
Z24−/− mice = experiment: Senolytic treatment of progeroid Z24−/− mice, articular cartilage degeneration / OA; type: in vivo; settings: for incidence/severity of age-related disorders including osteoarthritis (OA): progeroid mice accelerated aging model
Description: The Zmpste24−/− (Z24−/−) model of Hutchinson-Gilford Progeria Syndrome (HGPS) was used to model not only HGPS musculoskeletal decline, but also as a pre-clinical aging model due to its predictable and accelerated aging phenotypes. Z24−/− animals are short lived (˜6 months) and have severe musculoskeletal abnormalities including weight loss, dystonia, sarcopenia, osteoporosis and as reported herein, early signs of bone loss and spontaneous osteoarthritis (OA).
As a proof of concept for the potential of senolytics to reduce AC degeneration, a pilot study was conducted with Dasatinib+Quercitin (D/Q; 5 mg/kg; 50 mg/kg). Z24−/− mice were administered D/Q via oral gavage as a single dose (D/Qsin) at 4 months of age, or monthly dose starting at 2 months of age (D/Qmul) prior to sacrifice at 5 months.

[1] = system: senescent CD3+ T-Cells and plasma biomarkers; experiment: Single case: patient on Fisetin, senescent CD3+ T-Cells (C12FDG) and plasma biomarkers; type: in vivo, human; settings: 150 days of Fisetin 100 mg/day
Method: Another flow cytometry-based approach was optimized to assess senescent total PBMCs and CD3+ T-Cells from fresh human peripheral blood. For this approach, T-Cells were isolated from PBMCs, washed, then stained with the senescence marker C12FDG for 1 hr, and then used for flow cytometry analysis. Cells were identified using FSC and SSC controls, while senescent cells, or C12FDG+ events, were identified with an emission of 514 nm (green channel).
Thus, it was tested whether Fisetin could reduce senescent T-Cells and plasma biomarkers for OP in a single patient enrolled in the study that disclosed Fisetin use between blood draws. […] This was commensurate with a reduction in OP markers OPG, OPN, and SOST in addition to the pro-inflammatory SASP marker TNF-α (FIG. 25B). […] In addition, in a single case study, C12FDG staining was sensitive enough to detect reductions in senescent T-Cells associated with reduction in OP and SASP biomarkers following Fisetin therapy.

[2] = system: human adipose-derived stem cells (ADSCs); experiment: Senescent cells in culture-expanded adipose-derived stem cells, staining for senescence-associated heterochromatin foci (H2AX, H3K9); type: cell-based
Description: In preliminary experiments (FIG. 4), pre-existing senescent cells were found in cultured human adipose-derived stem cells (ADSCs). The ability of these cells to produce SASPs can induce significant damage to other stem cells or endogenous cells once re-administered into the intra-articular space. Thus, avoiding the proliferation of senescent cells from long-term expansion is critical to prevent these cells from compromising the ability of adult stem cells to repair cartilage. […] ADSCs from a young person (YF) and old person (OF) were cultured to passage 4 using normal proliferation media (DMEM/F-12, 10% FBS, 1% penicillin/streptomycin). The cells were subsequently treated with 50 μM of Fisetin for 24 hours and then cultured for 48 hours. Senescent cells were identified using antibodies for senescence-associated heterochromatin foci. […] These experiments support that Fisetin can eliminate senescent cells and SASPs in expanded stem cell populations, and this may apply to harvested tissues such as BMC from older OA patients that likely contain senescent cells (see FIGS. 2A-4, above).

[3] = system: Superoxide Dismutase 1 (SOD1); experiment: qPCR gene expression analysis of synovium harvested from the knee joint (rabbit OD + BMS study); type: in vivo, New Zealand White rabbits; settings: Fisetin-treated group vs control group (p<0.01)
Method: (§1) Post-surgical evaluations were to be conducted at two time points: 6 & 12 weeks. Autologous BMAC was injected into the unilateral knee joint cavity immediately after surgery, with no BMAC injection on the other side. Each rabbit was orally treated with Fisetin, Losartan, or a combination of the two biologics from the day after surgery until the day of euthanasia, for comparison with the untreated group. Rabbits were sacrificed 6 weeks or 12 weeks postoperatively. The experimental groups were as follows (N-8 per group): 1) OD+BMS; 2) OD+BMS+oral Fisetin; 3) OD+BMS+oral Losartan; 4) OD+BMS+oral Fisetin+oral Losartan; 5) OD+BMS+BMAC; 6) OD+BMS+BMAC+oral Fisetin; 7) OD+BMS+BMAC+oral Losartan; and 8) OD+BMS+[…].

[4] = system: osteochondral defect in the patellar groove of New Zealand White rabbits; experiment: Rabbit osteochondral defect + bone marrow stimulation (BMS) with oral Fisetin, oral Losartan and/or BMAC; type: in vivo; settings: for Microscopic evaluation and micro-CT: 12 weeks postoperatively, with or without BMAC, preliminary; for healing capacity of BMS-mediated osteochondral defects: compared with BMS alone, preliminary results
Method: Bone Marrow Collection and BMAC Processing for Autologous Transplant: New Zealand White rabbits were anesthetized to collect bone marrow aspirate (BMA) using an 18 G heparinized spinal needle through both iliac crests simultaneously by two surgeons for the purpose of preparing bone marrow aspirate concentrate (BMAC). Bone marrow samples were collected in 10 ml syringes containing ACD-A as an anticoagulant (˜1.5 ml of ACD-A per 10 ml sample), processed under sterile BSCs, and a benchtop centrifuge was used to prepare BMACs. Filters were also used for BMA prior to processing into BMACs. These procedures were performed under sterile conditions.
A 5 mm diameter osteochondral defect was created in the patellar groove of bilateral knees for 64 New Zealand White rabbits (128 knees). Under a sterile technique, a midline 3 cm incision was made in a knee flexed at approximately 30° and approached intra-articularly through a medial parapatellar incision. The patella was dislocated, and a 5 mm diameter osteochondral defect was created in the patellar groove (depth: 2 mm), followed by BMS. To allow bone marrow MSCs to be introduced into the defect space, five equally spaced holes of 2 mm depth were drilled into the subchondral bone using a 0.7 mm burr. […] Once the creation of the osteochondral defect and the BMS procedure was completed, the joint capsule was closed and 0.5 ml of BMAC was injected into the joint cavity of the left knee.
as §1

[5] = system: bone marrow mesenchymal stem cells (BM-MSCs); experiment: Senescent cells in bone marrow mesenchymal stem cells after Fisetin, C12FDG flow cytometry; type: cell-based, human; settings: 33 μM Fisetin 24 hours, passage 3
Method: Reduction in senescent cells in BMSCs after senolytic treatment: To determine a reduction in senescent cells in bone marrow stem cells after senolytic therapy, approximately 5 mL of bone marrow concentrate were obtained from a person. The BMC samples were immediately processed further to isolate the mononuclear layer and plated in a T25 flask to expand BM-MSCs. Bone marrow cells were pre-plated for 3-weeks in basal culture medium (CM) and passaged with CM+Fibroblast Growth Factor (FGF) to expand bone marrow mesenchymal stem cells (BM-MSCs). At passage 3, confluent BM-MSCs were treated with CM+FGF, 33 μM of DMSO, or 33 μM of Fisetin+GM+FGF for 24-hours in a 12-well plate. Then, […] of bafilomycin (inhibits lysosomal acidification) and […] of C12FDG (senescent label) were used to assess senescence via flow cytometry. In BM-MSCs at passage 3, the number of senescent in the Fisetin treated BM-MSCs was reduced by approximately 24% compared to the DMSO treated BM-MSCs, and approximately a 5% reduction of senescent cells was observed when compared to control BM-MSCs (FIG. 27).

[6] = system: PBMCs from fresh human peripheral blood; experiment: Fisetin treatment of isolated PBMCs, C12FDG / DRAQ7 flow cytometry; type: cell-based
Description: A flow cytometry-based approach to assess senescent total PBMCs from fresh human peripheral blood was optimized. Cells were identified using FSC and SSC controls (FIG. 19A), while senescent cells, or C12FDG+ events, were identified with an emission of 514 nm (green channel).
To examine cellular phenotypes of C12FDG-stained cells, low, moderate, and high populations were sorted using FACS for two study participants (FIG. 20A). […] Using the same methodology, the rate and senolytic efficacy of Fisetin treatment were determined on PBMCs directly at 1, 4, 18, and 24 hr timepoints. […] Furthermore, the rate of senolytic activity of Fisetin was faster versus other known senotherapeutic drugs such as metformin, dasatinib, or quercetin (FIG. 21D).
Thus, it was next tested whether the reduction of highly senescent cells by Fisetin was associated with co-incident cell death. To this end, cells were co-stained with the viability stain DRAQ7.

[7] = system: osteochondral defect in the patellar groove of New Zealand White rabbits; settings: 6 weeks after surgery; Losartan 10 mg/kg/day oral; cited from earlier work
[8] = system: osteochondral defect in the patellar groove of New Zealand White rabbits; experiment: Rabbit osteochondral defect model, microfracture plus oral Losartan; type: in vivo
Method: An osteochondral defect (diameter: 5 mm, depth: 2 mm) was made in the patellar groove of 48 New Zealand White rabbits. The rabbits were divided into 3 groups (8/group/time point): control (osteochondral defect only), microfracture (defect+microfracture), and Losartan (defect+microfracture+Losartan). For the Losartan group, a dose of 10 mg/kg/day of Losartan was orally administrated by mixing with the chew treat daily.

For CO[C@H]1/C=C\C=C(/C)C(=O)NC2=CC(=O)C(NCCN(C)C)=C(C[C@@H](C)C[C@H](OC)[C@H](O)[C@@H](C)/C=C(\C)[C@@H]1OC(N)=O)C2=O [Alvespimycin], which “incidence/severity of age-related disorders including osteoarthritis (OA)” value (from here on “incidence/severity”) (Z24−/− mice) is on record?
The value was “can reduce”.

Which “levels of moderately and highly senescent CD3+ T-Cells” value [1] does the source give for O=c1c(O)c(-c2ccc(O)c(O)c2)oc2cc(O)ccc12 [Fisetin, 2-(3,4-dihydroxyphenyl)-3,7-dihydroxychromen-4-one] here?
Its value is “reduces”.

And the “OP marker OPG in plasma” value ([1]; pre- vs. post-Fisetin)?
The value was “reduction”.

And the “OP marker OPN in plasma” value ([1]; pre- vs. post-Fisetin)?
Its value is “reduction”.

What about the “OP marker SOST in plasma” value ([1]; pre- vs. post-Fisetin) of the same compound?
Its value is “reduction”.

What about the “pro-inflammatory SASP marker TNF-α in plasma” value ([1]; pre- vs. post-Fisetin) of the same compound?
Its value is “reduction”.

What about the “number of senescent cells in the expanded ADSCs in vitro” value ([2]; 50 μM Fisetin for 24 hours, then cultured 48 hours, passage 4 ADSCs from young and old female) of the same compound?
The value was “significantly reduced”.

What about the “-H2AX and H3K9 in Adipose Derived Stem Cells” value ([2]; FIG. 4, senescence quantified by H2AX and H3K9 staining) of the same compound?
The value was “reduces”.

What about the “expression level of Superoxide Dismutase 1 (SOD1) in the synovium” value [3] of the same compound?
Its value is “significantly higher”.

And the “Macroscopic assessment, gross images compared to the control group” value ([4]; 6 weeks postoperatively, control = BMS, without medication, without BMAC)?
Its value is “significant improvement”.

What about the “Microscopic evaluation and micro-CT” value [4] of the same compound?
Its value is “trend toward improvement”.

What about the “healing capacity of BMS-mediated osteochondral defects” value [4] of the same compound?
Its value is “enhanced”.

And the articular cartilage degeneration (Z24−/− mice; murine model of natural and accelerated (progeria) aging)?
Its articular cartilage degeneration is “delay”.

And the “incidence/severity” value (Z24−/− mice)?
Its value is “can reduce”.

What about the “reduction of number of senescent cells in BM-MSCs” value ([5]; compared to DMSO treated BM-MSCs) of the same compound?
Its value is “approximately 24%”.

What about the “reduction of senescent cells in BM-MSCs” value ([5]; compared to control BM-MSCs (CM+FGF)) of the same compound?
The value was “approximately 5%”.

And the “time of maximum reduction of high senescent cells” value ([6]; Fisetin on PBMCs directly)?
Its value is 4 h.

What about the “time to significant reduction of high senescent cells” value ([6]; Fisetin on PBMCs directly) of the same compound?
Its value is ≤ 1 h.

And the “high senescent cell counts and percent senescent cells” value ([6]; Fisetin on PBMCs directly, timepoints 1, 4, 18, 24 hr)?
Its value is “significantly reduced”.

What about the “DRAQ7+ cells (cell death) with decrease in highly senescent cells” value ([6]; co-stained with viability stain DRAQ7, 1 and 4 hrs) of the same compound?
Its value is “concomitant increases”.

What about the “effect on highly senescent cells vs moderately senescent cells” value ([6]; isolated PBMCs (FIG. 22D)) of the same compound?
Its value is “primarily affect only highly senescent cells and not moderately senescent cells; also recorded: selectively kills highly senescent cells”.

What about the “rate of senolytic activity” value ([6]; versus metformin, dasatinib, or quercetin (FIG. 21D)) of the same compound?
Its value is “faster”.

For CCCCc1nc(Cl)c(CO)n1Cc1ccc(-c2ccccc2-c2nn[nH]n2)cc1 [Losartan], which “articular cartilage repair compared to microfracture or control groups” value [7] is on record?
Its value is “significantly improved”.

What about the ICRS macroscopic score ([8]; 12 weeks, Losartan 10 mg/kg/day oral + microfracture) of the same compound?
Its ICRS macroscopic score is 11.7±0.5.

What about the “modified O'Driscoll score (based on Safranin O staining) compared to the other 2 groups” value ([8]; Losartan 10 mg/kg/day oral + microfracture) of the same compound?
Its value is “significantly higher”.

What about the “Immunohistochemistry staining of cartilage (Col2)” value ([8]; Losartan treatment group) of the same compound?
The value was “nearly normal structure with hyaline-like column-arranged chondrocytes”.

What about the “Microscopic evaluation and micro-CT” value [4] of the same compound?
Its value is “trend toward improvement”.

And the “healing capacity of BMS-mediated osteochondral defects” value [4]?
The value was “enhanced”.

With O=c1c(O)c(-c2ccc(O)c(O)c2)oc2cc(O)cc(O)c12 [Quercetin] as the compound, how does the “incidence/severity” value (Z24−/− mice) read?
The value was “can reduce”.
